In patent publication US9409892B2, “4-hydroxy-isoquinoline compounds as HIF hydroxylase inhibitors” (FIBROGEN, INC., priority 2012, dated 2016):
“And” between values parts separate entries of the source, which are not always exact repeats. Identical values can stand only once. Like-named read-outs stand apart in the source and are kept apart here.

Legend:
[1] = target: PHD1 (EGLN2) (Homo sapiens (Human), UniProt Q96KS0); assay: HIF-PH assay (14CO2 capture), PHD1 enzyme inhibition; format: biochemical; conditions: Table 1; for PHD2/PHD1: ratio of the IC50 of the compound for each enzyme
[2] = target: PHD2 (EGLN1) (Homo sapiens (Human), UniProt Q9GZT9); assay: HIF-PH assay (14CO2 capture), PHD2 enzyme inhibition; format: biochemical; conditions: Table 1
[3] = individual measurement, read-out: IC50 (μM) PHD1
[4] = individual measurement, read-out: IC50 (μM) PHD2

Sequence of PHD1 (EGLN2) (Q96KS0 whole entry): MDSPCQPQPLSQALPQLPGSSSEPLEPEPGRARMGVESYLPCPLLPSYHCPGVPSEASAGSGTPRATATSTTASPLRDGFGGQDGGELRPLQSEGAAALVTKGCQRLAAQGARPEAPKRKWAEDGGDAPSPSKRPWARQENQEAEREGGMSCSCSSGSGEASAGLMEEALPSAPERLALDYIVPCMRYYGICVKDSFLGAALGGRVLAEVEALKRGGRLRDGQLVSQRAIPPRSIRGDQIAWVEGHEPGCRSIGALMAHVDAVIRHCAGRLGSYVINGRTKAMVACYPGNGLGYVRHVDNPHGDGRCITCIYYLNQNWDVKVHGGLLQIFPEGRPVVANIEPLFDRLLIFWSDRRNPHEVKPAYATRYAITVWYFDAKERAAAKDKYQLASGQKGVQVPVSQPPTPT
Sequence of PHD2 (EGLN1) (Q9GZT9 whole entry): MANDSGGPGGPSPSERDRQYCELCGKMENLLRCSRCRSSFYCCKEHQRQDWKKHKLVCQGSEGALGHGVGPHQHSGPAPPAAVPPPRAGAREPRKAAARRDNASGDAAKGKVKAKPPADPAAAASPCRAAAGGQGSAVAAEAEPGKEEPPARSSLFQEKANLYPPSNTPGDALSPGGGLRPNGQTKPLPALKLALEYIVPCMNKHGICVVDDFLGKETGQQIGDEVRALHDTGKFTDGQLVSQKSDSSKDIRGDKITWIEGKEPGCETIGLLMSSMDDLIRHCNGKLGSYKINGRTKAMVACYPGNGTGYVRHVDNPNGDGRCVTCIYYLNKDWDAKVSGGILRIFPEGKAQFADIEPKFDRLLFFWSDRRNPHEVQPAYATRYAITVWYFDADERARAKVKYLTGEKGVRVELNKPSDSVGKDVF

SMILES	IC50 [1, 3]	PHD2/PHD1 [1]	IC50 [2, 4]	IC50 ([1]; average of multiple independent measurements, read-out: IC50 (μM) PHD1 avg.) [µM]	PHD2/PHD1 avg. ([1]; average of the ratios of multiple independent measurements) [avg.]	IC50 ([2]; average of multiple independent measurements, read-out: IC50 (μM) PHD2 avg.) [µM]
N#Cc1nc(C(=O)NC2(CC(=O)O)CCCCC2)c(O)c2ccc(Oc3ccccc3)cc12 [Compound 90, {1-[(1-Cyano-4-hydroxy-7-phenoxy-isoquinoline-3-carbonyl)-amino]-cyclohexyl}-acetic acid]	7.32 µM	8	56.3 µM	–	–	–
N#Cc1nc(C(=O)NC(CC(=O)O)c2ccccc2)c(O)c2ccc(Oc3ccccc3)cc12 (stereo not drawn) [Compound 91, 3-[(1-Cyano-4-hydroxy-7-phenoxy-isoquinoline-3-carbonyl)-amino]-3-phenyl-propionic acid]	1.91 µM	6	11.3 µM	–	–	–
CC(C)(C)OC(=O)N1CCC(CC(=O)O)(NC(=O)c2nc(C#N)c3cc(Oc4ccccc4)ccc3c2O)CC1 [Compound 96, 4-Carboxymethyl-4-[(1-cyano-4-hydroxy-7-phenoxy-isoquinoline-3-carbonyl)-amino]-piperidine-1-carboxylic acid tert-butyl ester]	11.3 µM	14	158 µM	–	–	–
O=C(O)CCCCNC(=O)c1ncc2cc(Oc3c(F)cccc3F)ccc2c1O [Compound 100, 5-{[7-(2,6-Difluoro-phenoxy)-4-hydroxy-isoquinoline-3-carbonyl]-amino}-pentanoic acid]	23.1 µM	9	200 µM	–	–	–
COc1ccc(Oc2ccc3c(O)c(C(=O)NCC(C)(C)C(=O)O)ncc3c2)cc1 [Compound 104, 3-{[4-Hydroxy-7-(4-methoxy-phenoxy)-isoquinoline-3-carbonyl]-amino}-2,2-dimethyl-propionic acid]	3.3 µM	6	19.5 µM	–	–	–
COc1ccc(Oc2ccc3c(O)c(C(=O)NCCCCC(=O)O)ncc3c2)cc1 [Compound 105, 5-{[4-Hydroxy-7-(4-methoxy-phenoxy)-isoquinoline-3-carbonyl]-amino}-pentanoic acid]	2.3 µM	6	13.4 µM	–	–	–
N#Cc1nc(C(=O)NC2(CC(=O)O)CCC2)c(O)c2ccc(Oc3ccccc3)cc12 [Compound 106, {1-[(1-Cyano-4-hydroxy-7-phenoxy-isoquinoline-3-carbonyl)-amino]-cyclobutyl}-acetic acid]	7.79 µM	10	74.5 µM	–	–	–
N#Cc1nc(C(=O)N[C@H](CCc2ccccc2)CC(=O)O)c(O)c2ccc(Oc3ccccc3)cc12 [Compound 107, 3-(R)-[(1-Cyano-4-hydroxy-7-phenoxy-isoquinoline-3-carbonyl)-amino]-5-phenyl-pentanoic acid]	2.46 µM and 2.28 µM	4 and 6	9.28 µM and 14.4 µM	2.37	5	11.8
Cc1nc(C(=O)NCCC(=O)O)c(O)c2ccc(Oc3ccccc3)cc12 [Compound 108, 3-[(4-Hydroxy-1-methyl-7-phenoxy-isoquinoline-3-carbonyl)-amino]-propionic acid]	29 µM	7	200 µM	–	–	–
Cc1cccc(C)c1Oc1ccc2c(C#N)nc(C(=O)NCCC(=O)O)c(O)c2c1 [Compound 109, 3{-[1-Cyano-6-(2,6-dimethyl-phenoxy)-4-hydroxy-isoquinoline-3-carbonyl]-amino}-propionic acid]	6.4 µM	5	30.4 µM	–	–	–
Cc1cccc(C)c1Oc1ccc2c(C#N)nc(C(=O)NCCCC(=O)O)c(O)c2c1 [Compound 110, 4-{[1-Cyano-6-(2,6-dimethyl-phenoxy)-4-hydroxy-isoquinoline-3-carbonyl]-amino}-butyric acid]	3.63 µM	6	21.3 µM	–	–	–
Cc1cccc(C)c1Oc1ccc2c(C#N)nc(C(=O)NCCCCC(=O)O)c(O)c2c1 [Compound 111, 5-{[1-Cyano-6-(2,6-dimethyl-phenoxy)-4-hydroxy-isoquinoline-3-carbonyl]-amino}-pentanoic acid]	10.5 µM	11	112 µM	–	–	–
O=C(O)CCNC(=O)c1ncc2ccc(Oc3ccccc3)cc2c1O [Compound 112, 3-[(4-Hydroxy-6-phenoxy-isoquinoline-3-carbonyl)-amino]-propionic acid]	23.7 µM	8	200 µM	–	–	–
O=C(O)CCCNC(=O)c1ncc2ccc(Oc3ccccc3)cc2c1O [Compound 113, 4-[(4-Hydroxy-6-phenoxy-isoquinoline-3-carbonyl)-amino]-butyric acid]	21.2 µM	9	200 µM	–	–	–
O=C(O)CCCCNC(=O)c1ncc2cc(Sc3ccccc3)ccc2c1O [Compound 114, 5-[(4-Hydroxy-7-phenylsulfanyl-isoquinoline-3-carbonyl)-amino]-pentanoic acid]	13.5 µM	6	86.6 µM	–	–	–
O=C(O)CCNC(=O)c1ncc2cc(NC(=O)Nc3ccccc3)ccc2c1O [Compound 116, 3-{[4-Hydroxy-7-(3-phenyl-ureido)-isoquinoline-3-carbonyl]-amino}-propionic acid]	3.34 µM	9	29.2 µM	–	–	–
O=C(Nc1ccccc1)Nc1ccc2c(O)c(C(=O)NC[C@H](O)C(=O)O)ncc2c1 [Compound 117, (S)-2-Hydroxy-3-{[4-hydroxy-7-(3-phenyl-ureido)-isoquinoline-3-carbonyl]-amino}-propionic acid]	4.66 µM	11	51.4 µM	–	–	–
O=C(O)CCNC(=O)c1ncc2cc(NC(=O)c3ccc(F)cc3)ccc2c1O [Compound 118, 3-{[7-(4-Fluoro-benzoylamino)-4-hydroxy-isoquinoline-3-carbonyl]-amino}-propionic acid]	6.45 µM	18	113 µM	–	–	–
O=C(O)CCCNC(=O)c1ncc2cc(NC(=O)Nc3ccccc3)ccc2c1O [Compound 119, 4-{[4-Hydroxy-7-(3-phenyl-ureido)-isoquinoline-3-carbonyl]-amino}-butyric acid]	12.6 µM	6	72.3 µM	–	–	–
O=C(O)CCCNC(=O)c1ncc2cc(NC(=O)c3ccc(F)cc3)ccc2c1O [Compound 120, 4-{[7-(4-Fluoro-benzoylamino)-4-hydroxy-isoquinoline-3-carbonyl]-amino}-butyric acid]	12.4 µM	16	200 µM	–	–	–

Further lines, results first:

IC50 [1, 3]	PHD2/PHD1 [1]	IC50 [2, 4]	IC50 ([1]; average of multiple independent measurements, read-out: IC50 (μM) PHD1 avg.) [µM]	PHD2/PHD1 avg. ([1]; average of the ratios of multiple independent measurements) [avg.]	IC50 ([2]; average of multiple independent measurements, read-out: IC50 (μM) PHD2 avg.) [µM]	SMILES
0.28 µM	14	3.88 µM	–	–	–	C[C@H](CNC(=O)c1nc(C#N)c2cc(Oc3ccccc3)ccc2c1O)C(=O)O [Compound 92, 3-[(1-Cyano-4-hydroxy-7-phenoxy-isoquinoline-3-carbonyl)-amino]-2-(R)-methyl-propionic acid]
0.16 µM	15	2.4 µM	–	–	–	C[C@@H](CNC(=O)c1nc(C#N)c2cc(Oc3ccccc3)ccc2c1O)C(=O)O [Compound 93, 3-[(1-Cyano-4-hydroxy-7-phenoxy-isoquinoline-3-carbonyl)-amino]-2-(S)-methyl-propionic acid]
0.31 µM	7	2.18 µM	–	–	–	CO[C@@H](CCNC(=O)c1nc(C#N)c2cc(Oc3ccccc3)ccc2c1O)C(=O)O [Compound 94, 4-[(1-Cyano-4-hydroxy-7-phenoxy-isoquinoline-3-carbonyl)-amino]-2-(S)-methoxy-butyric acid]
0.74 µM	5	3.5 µM	–	–	–	CC(C)(CCCNC(=O)c1nc(C#N)c2cc(Oc3ccccc3)ccc2c1O)C(=O)O [Compound 95, 5-[(1-Cyano-4-hydroxy-7-phenoxy-isoquinoline-3-carbonyl)-amino]-2,2-dimethyl-pentanoic acid]
1.3 µM	6	7.43 µM	–	–	–	N#Cc1nc(C(=O)NCCC(=O)O)c(O)c2ccc(Oc3ccc(F)cc3Cl)cc12 [Compound 97, 3-{[7-(2-Chloro-4-fluoro-phenoxy)-1-cyano-4-hydroxy-isoquinoline-3-carbonyl]-amino}-propionic acid]
0.27 µM	14	3.73 µM	–	–	–	N#Cc1nc(C(=O)NCCCCC(=O)O)c(O)c2ccc(Oc3ccc(F)cc3Cl)cc12 [Compound 98, 5-{[7-(2-Chloro-4-fluoro-phenoxy)-1-cyano-4-hydroxy-isoquinoline-3-carbonyl]-amino}-pentanoic acid]
0.29 µM	19	5.55 µM	–	–	–	CC(C)(CNC(=O)c1nc(C#N)c2cc(Oc3ccc(F)cc3Cl)ccc2c1O)C(=O)O [Compound 99, 3-{[7-(2-Chloro-4-fluoro-phenoxy)-1-cyano-4-hydroxy-isoquinoline-3-carbonyl]-amino}-2,2-dimethyl-propionic acid]
0.41 µM	11	4.65 µM	–	–	–	CC(C)(CNC(=O)c1nc(C#N)c2cc(Oc3ccc(F)cc3)ccc2c1O)C(=O)O [Compound 101, 3{-[1-Cyano-7-(4-fluoro-phenoxy)-4-hydroxy-isoquinoline-3-carbonyl]-amino}-2,2-dimethyl-propionic acid]
0.53 µM	16	8.5 µM	–	–	–	CC(C)(CC(=O)O)NC(=O)c1nc(C#N)c2cc(Oc3ccc(F)cc3)ccc2c1O [Compound 102, 3{-[1-Cyano-7-(4-fluoro-phenoxy)-4-hydroxy-isoquinoline-3-carbonyl]-amino}-3-methyl-butyric acid]
0.79 µM	6	4.78 µM	–	–	–	COc1ccc(Oc2ccc3c(O)c(C(=O)NC[C@H](O)C(=O)O)ncc3c2)cc1 [Compound 103, 2-(S)-Hydroxy-3-{[4-hydroxy-7-(4-methoxy-phenoxy)-isoquinoline-3-carbonyl]-amino}-propionic acid]
1.41 µM	11	14.8 µM	–	–	–	O=C(O)CCCNC(=O)c1ncc2cc(Sc3ccccc3)ccc2c1O [Compound 115, 4-[(4-Hydroxy-7-phenylsulfanyl-isoquinoline-3-carbonyl)-amino]-butyric acid]
